Reference: US7064139B2, “Method for treating retroviral infections” (Uniroyal Chemical Company, Inc., priority 2001, dated 2006)
Converted amounts (≈) assume the structure as drawn. Where two headings read alike, the source gives them in different places.

Columns and labels:
HIV-2 (ROD) = assay: Inhibition of HIV-2 syncytium formation in CEM cells; type: cell-based; settings: for EC50: Human immunodeficiency virus 2, CCRF-CEM, CEM cells, syncytium formation, day four post infection, read-out: EC50 (ug/ml) HIV-2
Procedure, shortened: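 Human T-lymphoblast CEM cells, suspended at roughly 300,000 cells per ml of culture medium, were infected with about 100 CCID50 of HIV-2 (ROD). Aliquots of 100 μl of infected cells were placed in 200 μl microtiter wells holding 100 μl of serial 5-fold compound dilutions, and syncytium formation was scored microscopically four days after infection.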

[1] = system: HHV-6 (Z-29 strain, variant B); assay: Anti-HHV-6 activity in MOLT-3 cells (CPE and viral DNA slot blot); type: cell-based, human herpes virus type 6 (HHV-6); settings: Homo sapiens
Method: (§1) Two human immature T-lymphoblastoid cell lines were used: HSB-2, obtained from American Type Culture Collection (No. CCL 120.1); and MOLT-3, purchased from ABI Technologies (Columbia, Md., USA). The cells were propagated in RPMI 1640 medium supplemented with 10% fetal calf serum, 2 mM L-glutamine, 0.075% sodium bicarbonate and gentamycin. The cultures were incubated at 37° C. in a humidified and CO2 controlled incubator.
The GS strain of HHV-6 variant A was kindly provided by Dr. R. Gallo, while the Z-29 strain of HHV-6 variant B was obtained from ABI Technologies (Columbia, Md., USA). For preparation of virus stocks, suspensions of HSB-2 cells infected with strain GS, or MOLT-3 cells infected with strain Z-29, were collected at 10–12 days post infection, when the cytopathic effect (CPE) was maximal and cells were >90% virus positive (as determined by immunofluorescence detection of HHV-6 antigens). Since the titer of virus released in culture supernatant was insufficient, virus stocks were used as whole cell suspensions, which were relatively stable when kept in aliquots at −80° C.
Stock solutions of the test compounds or of standards were prepared in dimethylsulfoxide or phosphate buffered saline (PBS). Working dilutions for the antiviral assays were prepared by appropriate dilution of the stock solutions in cell culture medium. The antiherpetic drug Foscarnet (PFA, Foscavir® from Astra, Södertälje, Sweden) was used as standard.
On day 0, the GS and Z-29 strains of HHV-6 were inoculated onto HSB-2 cells and MOLT-3 cells, respectively, at a multiplicity of infection of 0.001 CCID50 (50% cell culture infective doses) per cell, and a cell suspension having a cell density of approximately 5×10^6 cells per ml of culture medium. After two hours of virus adsorption at 37° C., the unadsorbed virus was removed by centrifugation and the infected cells were resuspended and transferred to 48-well microtrays containing the test compounds or control in two- to five-fold dilutions. The final cell density of the suspended cells was approximately 0.8×10^6 cells per ml of culture medium.
(§2) The cells were incubated at 37° C. and subcultivated on days four and seven by two-fold dilution in medium containing fresh test compound or control. On days 10–14, the cells were examined microscopically to score the viral cytopathic effect (CPE) visible by the appearance of large ballooning cells and drug toxicity. Then total DNA was extracted from the infected cells with the QIAamp Blood Kit (Qiagen, Germany), using the manufacturer's instructions, and the DNA extracts were frozen at −20° C. until further analysis.
A digoxigenin labeled probe specific for strain GS or Z-29, was prepared by PCR reaction in the presence of digoxigenin-dUTP, on a 1-μl aliquot of a DNA extract prepared from infected cells showing manifest CPE. The 5′-3′ primer sequence was GCTAGAACG TATTTGCTGCAGAACG (Seq. Id. No. 1) and […] (Seq. Id. No. 2), delimiting a 259 bp sequence within the U67 gene. The amplified product was separated on agarose gel and extracted from the gel fragment with the QIAquick gel extraction kit (Qiagen, Germany) after which the purified probe was frozen at −20° C.
For quantitation of viral DNA in the infected and drug-treated cell cultures, appropriate aliquots of the total DNA extracts (containing 5 μg of total DNA, as determined spectrophotometrically at 260 nm) were boiled during 10 min, and blotted on a nylon membrane (Hybond-N from Amersham) using a Hoefer slot blot apparatus from Pharmacia (Sweden). After UV cross-linking, the membrane was prehybridized during 30 min at 42° C. with DIG (digoxigenin) easy Hyb solution® (Boehringer Mannheim, Germany). Then, the GS- or Z-29 specific digoxigenin labeled probe was added and allowed to hybridize by incubation overnight at 42° C. […]

HIV-1 (IIIB) = assay: microbe, parasite or virus in culture; type: cell-based; settings: Human immunodeficiency virus 1, IIIB, CCRF-CEM; CEM cells, syncytium formation, day four post infection; read-out: EC50 (ug/ml) HIV-1
Procedure, shortened: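 Human T-lymphoblast CEM cells at roughly 300,000 cells per ml were infected with about 100 CCID50 of HIV-1 (IIIB). Then 100 μl of the infected suspension went into 200 μl microtiter wells holding 100 μl of 5-fold serial compound dilutions. Inhibition of syncytium formation was scored microscopically on day four post infection, and protection against virus-induced cytopathicity was recorded.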

MOLT-3 cells = assay: Toxicity in MOLT-3 cells, changes in cell morphology by microscopic examination; type: cell-based, human
Method: as §1, §2
The antiviral IC50 was calculated by extrapolation and defined as the compound concentration that produced 50% inhibition of virus replication as determined by microscopic examination or quantitation of viral DNA. Toxicity of the compounds was expressed as minimum cytotoxic concentration (MCC), or the lowest compound concentration that caused a microscopically visible alteration in cellular morphology.

Davis strain CMV = assay: Reduction of CMV-induced cytopathicity in HEL cells; type: cell-based, human cytomegalovirus (HCMV); settings: HEL cells; for EC50: Human betaherpesvirus 5, 168 h, virus-induced cytopathicity after seven days, read-out: Antiviral EC50 (ug/ml) Davis strain CMV
Procedure, shortened: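 Confluent HEL cells were infected with 100 PFU/well CMV for 1–2 h, then washed and kept in MEM with 2% FCS and test compound. EC50 is the concentration cutting virus-induced cytopathicity by 50% versus untreated control at day 7. Where cytotoxicity interfered, percent protection at the stated concentration is given.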

[2] = MOLT-3, read-out: EC50 Based on CPE, MOLT-3 cells, Exp. 1
[3] = MOLT-3, read-out: EC50 Based on CPE, MOLT-3 cells, Exp. 2
[4] = MOLT-3, read-out: EC50 Based on CPE, MOLT-3 cells, Exp. 3
[5] = MOLT-3, read-out: EC50 Based on Viral DMA Detection, MOLT-3 cells, Exp. 1
[6] = MOLT-3, read-out: EC50 Based on Viral DMA Detection, MOLT-3 cells, Exp. 2
[7] = MOLT-3, read-out: EC50 Based on Viral DMA Detection, MOLT-3 cells, Exp. 3

Row | SMILES | EC50 (HIV-2 (ROD)) [µg/mL] | EC50 [1, 2] [mg/L] | EC50 [1, 3] [mg/L] | EC50 [1, 4] [mg/L] | EC50 [1, 5] [mg/L] | EC50 [1, 6] [mg/L] | EC50 [1, 7] [mg/L] | EC50 (HIV-1 (IIIB)) [µg/mL] | MIC (concentration causing minimal changes in cell morphology) (MOLT-3 cells; Exp. 1) [μg/ml] | MIC (concentration causing minimal changes in cell morphology) (MOLT-3 cells; Exp. 2) [μg/ml] | MIC (concentration causing minimal changes in cell morphology) (MOLT-3 cells; Exp. 3) | EC50 (Davis strain CMV) [µg/mL] | HIV-2 % Protection (HIV-2 (ROD); protection of CEM cells against virus-induced cytopathicity at the concentration in the previous column) [%] | melting point [°C] | Antiviral % Inhibition Davis strain CMV (Davis strain CMV; estimate of percent protection at the concentration in the previous column) [%]
1 | O=S(=O)(Cc1ccccc1)c1cccc[n+]1[O-] [Compound 6, 2-(Benzylsulfonyl)-pyridine-N-oxide] | 4.4 (≈ 17.7 µM) | 17.1 (≈ 68.6 µM) | 8.7 (≈ 34.9 µM) | 12.9 (≈ 51.7 µM) | 28.1 (≈ 113 µM) | 17.3 (≈ 69.4 µM) | 22.7 (≈ 91.1 µM) | 4.4 (≈ 17.7 µM) | 100 | 100 | 100 μg/ml | 19.5 (≈ 78.2 µM) |  |  | 
2 | Cc1ccc(C)c(CS(=O)(=O)c2cccc[n+]2[O-])c1 [Compound 10, 2-(2,5-Dimethylphenylmethylsulfonyl)pyridine N-oxide] | 5.8 (≈ 20.9 µM) | 12.6 (≈ 45.4 µM) | 11.1 (≈ 40 µM) | 11.8 (≈ 42.5 µM) | 21.8 (≈ 78.6 µM) | 9.4 (≈ 33.9 µM) | 15.6 (≈ 56.2 µM) | 1.8 (≈ 6.49 µM) | 50 | 100 | ≧50 μg/ml | 10 (≈ 36.1 µM) |  |  | 
3 | O=C(O)P(=O)(O)O [PFA, Foscarnet, reference compound] |  | 8.9 (≈ 70.6 µM) | 4 (≈ 31.7 µM) | 6.5 (≈ 51.6 µM) | 9.4 (≈ 74.6 µM) | 8.8 (≈ 69.8 µM) | 9.1 (≈ 72.2 µM) |  | >100 | >100 | >100 μg/ml |  |  |  | 
4 | Cc1ccc(C)c(CS(=O)(=O)c2c(C)ccc[n+]2[O-])c1 [Compound 165, 2-[((2,5-dimethylphenyl)methyl)sulfonyl]-3-methylpyridine-1-oxide] | > 4 |  |  |  |  |  |  | 0.14 (≈ 0.48 µM) |  |  |  |  | 0.0 | 171 to 173 | 
5 | [O-][n+]1ccccc1[S+]([O-])Cc1ccccc1 (stereo not shown) [Compound 5, 2-(Benzylsulfinyl)-pyridine-N-oxide] | 2.1 (≈ 9 µM) | > 100 | > 200 | > 100 | > 100 |  | > 100 | 3.4 (≈ 14.6 µM) | 100 | 100 | 100 μg/ml | > 50 |  |  | 0.0
